Measured values from ChEMBL document CHEMBL1201862, “PubChem BioAssay data set” (2004).
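48-hour exposure; five concentrations; linearly interpolated endpoints. At the GI50, growth is halved.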 The source made the active and inactive calls. Rule as the data show it: active = GI50 up to about 1.1 µM and inactive = higher.

Legend:
Assay in all cases: growth of human tumour cells (NCI), 48 h
SR = tested on: SR
PC-3 = tested on: PC-3
T47D = tested on: T47D
DU-145 = tested on: DU-145
NCI-H23 = tested on: NCI-H23
MDA-MB-231 = tested on: MDA-MB-231
SK-OV-3 = tested on: SK-OV-3
NCI-H460 = tested on: NCI-H460
K562 = tested on: K562
SN12C = tested on: SN12C
MDA-N = tested on: MDA-N
ACHN = tested on: ACHN
Hs-578T = tested on: Hs-578T
UACC-257 = tested on: UACC-257
OVCAR-8 = tested on: OVCAR-8
SNB-19 = tested on: SNB-19
CAKI-1 = tested on: CAKI-1
786-0 = tested on: 786-0
BT-549 = tested on: BT-549

Measured: GI50

Cc1ccc(S(=O)(=O)NCCSCCNS(=O)(=O)c2ccc(C)cc2)cc1
inactive: SR > 100 µM | PC-3 > 100 µM | T47D > 100 µM | DU-145 > 100 µM | NCI-H23 > 100 µM | MDA-MB-231 > 100 µM | SK-OV-3 > 100 µM | NCI-H460 > 100 µM | K562 > 100 µM | SN12C > 100 µM | MDA-N > 100 µM | ACHN > 100 µM | Hs-578T > 100 µM | UACC-257 > 100 µM | OVCAR-8 > 100 µM | SNB-19 > 100 µM

Cc1ccc(-c2c(C#N)c(N)nc3c2CCS(=O)(=O)c2ccccc2-3)cc1
inactive: PC-3 78.9 µM | T47D 55.5 µM | DU-145 74.6 µM | CAKI-1 > 100 µM | NCI-H23 > 100 µM | 786-0 44.2 µM | MDA-MB-231 > 100 µM | NCI-H460 > 100 µM | K562 > 100 µM | SN12C 81.8 µM | MDA-N > 100 µM | ACHN 52.4 µM | BT-549 95.3 µM | Hs-578T 58.1 µM | UACC-257 65 µM | OVCAR-8 41 µM | SNB-19 50.7 µM

CCCCOC(=O)NC(Nc1ccc(S(N)(=O)=O)cc1)(C(F)(F)F)C(F)(F)F
inactive: SR > 100 µM | T47D > 100 µM | DU-145 > 100 µM | NCI-H23 > 100 µM | MDA-MB-231 > 100 µM | SK-OV-3 > 100 µM | NCI-H460 > 100 µM | K562 > 100 µM | SN12C > 100 µM | ACHN > 100 µM | BT-549 > 100 µM | Hs-578T > 100 µM | UACC-257 > 100 µM | SNB-19 > 100 µM

OC1CSCCSCCCSCCSC1
inactive: PC-3 > 100 µM | T47D > 100 µM | DU-145 > 100 µM | CAKI-1 > 100 µM | NCI-H23 > 100 µM | 786-0 > 100 µM | MDA-MB-231 > 100 µM | SK-OV-3 > 100 µM | NCI-H460 > 100 µM | K562 > 100 µM | SN12C > 100 µM | MDA-N > 100 µM | ACHN > 100 µM | BT-549 > 100 µM | Hs-578T > 100 µM | UACC-257 > 100 µM | OVCAR-8 > 100 µM | SNB-19 > 100 µM

COc1cc(OC)c2nc(C)c3c(c2c1)OCC3
inactive: SR > 100 µM | PC-3 > 100 µM | T47D > 100 µM | DU-145 > 100 µM | CAKI-1 19.8 µM | NCI-H23 > 100 µM | 786-0 61.1 µM | MDA-MB-231 12.6 µM | NCI-H460 > 100 µM | K562 > 100 µM | SN12C 89.3 µM | MDA-N > 100 µM | ACHN > 100 µM | BT-549 > 100 µM | Hs-578T 47.4 µM | UACC-257 > 100 µM | OVCAR-8 > 100 µM | SNB-19 47.3 µM

CC1(c2nc3ccccc3[nH]2)CCC(CO)C(C)(C)O1 (centres undefined)
inactive: SR 16.1 µM | PC-3 > 100 µM | T47D > 100 µM | DU-145 > 100 µM | CAKI-1 > 100 µM | NCI-H23 > 100 µM | 786-0 > 100 µM | MDA-MB-231 > 100 µM | SK-OV-3 > 100 µM | K562 > 100 µM | SN12C > 100 µM | MDA-N > 100 µM | ACHN > 100 µM | BT-549 > 100 µM | Hs-578T > 100 µM | UACC-257 > 100 µM | OVCAR-8 > 100 µM | SNB-19 > 100 µM

O=Cc1cccc2ccc3ccccc3c12
inactive: PC-3 9.59 µM | T47D 15 µM | DU-145 22.4 µM | CAKI-1 16.1 µM | NCI-H23 25.1 µM | 786-0 17.5 µM | MDA-MB-231 17 µM | SK-OV-3 16.5 µM | NCI-H460 21.4 µM | SN12C 20.5 µM | MDA-N 21.6 µM | ACHN 13.5 µM | BT-549 30.5 µM | Hs-578T 13.5 µM | UACC-257 32 µM | OVCAR-8 24.2 µM | SNB-19 7.8 µM

CC(C)CCNC(=O)c1ccc(CNC(=O)/C=C/c2ccc(OCc3ccccc3)cc2)cc1
inactive: SR > 100 µM | PC-3 > 100 µM | T47D > 100 µM | DU-145 > 100 µM | CAKI-1 > 100 µM | NCI-H23 > 100 µM | 786-0 > 100 µM | MDA-MB-231 > 100 µM | SK-OV-3 > 100 µM | NCI-H460 > 100 µM | K562 > 100 µM | SN12C > 100 µM | MDA-N > 100 µM | ACHN > 100 µM | UACC-257 > 100 µM | OVCAR-8 > 100 µM | SNB-19 > 100 µM

N#CCC(=O)N/N=C1/C(=O)N(c2ccc(Cl)cc2)C(=O)C(=O)C1c1nc2ccccc2s1 (centres undefined)
inactive: CAKI-1 > 100 µM | NCI-H23 > 100 µM | 786-0 > 100 µM | SK-OV-3 > 100 µM | SN12C > 100 µM | ACHN > 100 µM | UACC-257 65.6 µM | OVCAR-8 95.9 µM | SNB-19 > 100 µM
